Experimental data taken from patent US20260083722A1, “BIFUNCTIONAL DEGRADERS COMPRISING ELECTROPHILIC PROTACS THAT ENGAGE DCAF1 AND PHARMACEUTICAL COMPOSITIONS COMPRISING THE SAME” (THE SCRIPPS RESEARCH INSTITUTE, priority 2022, published 2026).

How the values were obtained:
Assay type in all cases: cell-based
[1] = target: T1, C1113 of recombinantly expressed DCAF1 (Homo sapiens, UniProt Q9Y4B6); experiment: MS-ABPP in FLAG-DCAF1-WT-expressing HEK293T cells; settings: 5 μM, 3 h
T1 construct: expressed in transfected cells; host or cells: HEK293T
Method: (§1) (A) Left, western blots showing effects of YT47R and YT47S on the immunoprecipitation (IP) of FLAG-DCAF1-WT or FLAG-DCAF1-C1113A with HA-FKBP12 in HEK293T cells co-expressing these proteins. Cells were treated with YT47R or YT47S (5 μM) for 2 h in the presence of MG132 (10 μM) prior to lysis and IP with an anti-HA antibody and western blotting for the indicated proteins (DCAF1, FKBP12, and ubiquitinated protein). Right, bar graphs quantifying DCAF1 (top) and ubiquitination (Ub) (bottom) in the indicated IP groups. (B) Left, western blots showing effects of YT47R and YT47S on the IP of endogenous DCAF1 with HA-FKBP12 in HEK293T cells expressing HA-FKBP12. […] Right, bar graph quantifying DCAF1 in the indicated IP groups. […] Statistical significance was calculated with unpaired two-tailed Student's t-tests comparing YT41R/YT47R- and DMSO-treated cells. **P<0.01, ****P<0.0001. (C) MS-ABPP quantification of IA-DTB labeling of the indicated cysteines in DCAF1 from FLAG-DCAF1-WT-expressing HEK293T cells treated with the indicated concentrations of YT47R (3 h) relative to cells treated with DMSO. […] Statistical significance was calculated with unpaired two-tailed Student's t-tests comparing compound to DMSO treated cells. *P<0.1. […]

HA-FKBP12 = target: T2, HA-FKBP12 (Homo sapiens, UniProt P62942); experiment: ubiquitination of immunoprecipitated HA-FKBP12 in HEK293T cells
T2 construct: expressed in transfected cells; host or cells: HEK293T
Method: as §1

[2] = tested on: ternary complex of FKBP12 and DCAF1; experiment: co-immunoprecipitation of DCAF1 with HA-FKBP12 in HEK293T cells (ternary complex); settings: 5 μM, 2 h
Method: (A) Left, western blots showing effects of YT47R and YT47S on the immunoprecipitation (IP) of FLAG-DCAF1-WT or FLAG-DCAF1-C1113A with HA-FKBP12 in HEK293T cells co-expressing these proteins. Cells were treated with YT47R or YT47S (5 μM) for 2 h in the presence of MG132 (10 μM) prior to lysis and IP with an anti-HA antibody and western blotting for the indicated proteins (DCAF1, FKBP12, and ubiquitinated protein). Right, bar graphs quantifying DCAF1 (top) and ubiquitination (Ub) (bottom) in the indicated IP groups. (B) Left, western blots showing effects of YT47R and YT47S on the IP of endogenous DCAF1 with HA-FKBP12 in HEK293T cells expressing HA-FKBP12. Cells were treated with YT47R or YT47S (5 μM) for 2 h in the presence of MG132 (10 μM) prior to lysis and IP with an anti-HA antibody and western blotting for the indicated proteins (DCAF1, FKBP12). Right, bar graph quantifying DCAF1 in the indicated IP groups. For (A, B), data are mean values±SEM for three independent experiments. Statistical significance was calculated with unpaired two-tailed Student's t-tests comparing YT41R/YT47R- and DMSO-treated cells. **P<0.01, ****P<0.0001. (C) MS-ABPP quantification of IA-DTB labeling of the indicated cysteines in DCAF1 from FLAG-DCAF1-WT-expressing HEK293T cells treated with the indicated concentrations of YT47R (3 h) relative to cells treated with DMSO. Data represent average values±SEM from four independent experiments. Statistical significance was calculated with unpaired two-tailed Student's t-tests comparing compound to DMSO treated cells. *P<0.1.
Finally, we investigated whether electrophilic PROTACs induce a stable ternary complex of FKBP12 with DCAF1 and promote FKBP12 ubiquitination. […] A ternary complex was not observed in cells expressing the DCAF1-C1113A mutant (FIG. 6A), supporting that YT47R induces this complex through site-specifically reacting with C1113. […] In considering possible reasons why this ternary complex formation with endogenous DCAF1 was insufficient to support the degradation of recombinantly expressed FKBP12 (FIG. 4A), we speculate that our current PROTACs (YT41R, YT47R) may require further improvements in cellular properties to enable robust targeted protein degradation mediated by physiological concentrations of DCAF1.

T2 sequence (P62942 whole entry): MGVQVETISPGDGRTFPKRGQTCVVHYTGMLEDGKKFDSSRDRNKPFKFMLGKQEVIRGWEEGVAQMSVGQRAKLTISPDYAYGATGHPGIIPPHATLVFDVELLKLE
T1 sequence (Q9Y4B6 whole entry): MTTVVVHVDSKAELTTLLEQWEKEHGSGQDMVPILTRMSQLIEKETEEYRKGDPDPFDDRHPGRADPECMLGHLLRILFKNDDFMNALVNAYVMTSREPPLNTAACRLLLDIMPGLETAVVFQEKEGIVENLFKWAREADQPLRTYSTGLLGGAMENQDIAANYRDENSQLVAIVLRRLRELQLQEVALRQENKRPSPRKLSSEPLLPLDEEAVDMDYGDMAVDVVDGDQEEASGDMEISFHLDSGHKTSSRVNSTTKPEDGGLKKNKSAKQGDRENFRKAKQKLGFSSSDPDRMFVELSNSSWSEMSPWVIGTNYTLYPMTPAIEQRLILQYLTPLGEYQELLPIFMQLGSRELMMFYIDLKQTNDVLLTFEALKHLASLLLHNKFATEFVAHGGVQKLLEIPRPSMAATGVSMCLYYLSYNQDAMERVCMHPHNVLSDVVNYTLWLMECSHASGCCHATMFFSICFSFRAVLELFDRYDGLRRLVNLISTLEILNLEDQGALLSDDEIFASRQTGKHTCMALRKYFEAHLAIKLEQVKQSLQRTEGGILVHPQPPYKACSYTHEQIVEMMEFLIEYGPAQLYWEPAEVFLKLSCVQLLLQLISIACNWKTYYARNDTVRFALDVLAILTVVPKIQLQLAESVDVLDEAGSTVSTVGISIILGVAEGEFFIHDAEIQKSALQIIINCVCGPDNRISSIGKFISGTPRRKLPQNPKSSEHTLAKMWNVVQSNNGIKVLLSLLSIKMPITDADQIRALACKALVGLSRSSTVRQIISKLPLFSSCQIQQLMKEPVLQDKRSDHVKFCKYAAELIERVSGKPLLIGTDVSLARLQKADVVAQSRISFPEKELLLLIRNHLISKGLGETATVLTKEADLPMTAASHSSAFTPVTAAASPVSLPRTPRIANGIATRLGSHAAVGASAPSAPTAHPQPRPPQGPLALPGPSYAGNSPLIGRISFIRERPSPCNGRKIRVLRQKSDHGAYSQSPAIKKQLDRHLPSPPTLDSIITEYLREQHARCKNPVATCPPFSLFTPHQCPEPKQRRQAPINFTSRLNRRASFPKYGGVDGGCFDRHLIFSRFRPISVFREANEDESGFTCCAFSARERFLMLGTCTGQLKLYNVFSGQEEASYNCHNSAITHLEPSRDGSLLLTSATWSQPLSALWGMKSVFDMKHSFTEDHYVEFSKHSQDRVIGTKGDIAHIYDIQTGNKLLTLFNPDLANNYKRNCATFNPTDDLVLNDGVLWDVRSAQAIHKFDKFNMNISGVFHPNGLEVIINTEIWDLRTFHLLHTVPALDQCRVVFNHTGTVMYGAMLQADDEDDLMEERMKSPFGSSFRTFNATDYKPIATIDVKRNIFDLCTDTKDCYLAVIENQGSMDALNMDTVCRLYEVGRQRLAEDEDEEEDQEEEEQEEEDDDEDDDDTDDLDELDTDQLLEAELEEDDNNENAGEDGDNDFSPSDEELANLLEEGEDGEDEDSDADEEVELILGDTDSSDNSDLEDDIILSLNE

Structure (SMILES): C=CC(=O)N1C[C@H](c2ccc(C(=O)NCCOCCOCCOCCNC(=O)COc3cccc([C@@H](CCc4ccc(OC)c(OC)c4)OC(=O)[C@@H]4CCCCN4C(=O)C(=O)C(C)(C)CC)c3)cc2)[C@@H]1C(=O)Nc1cccc2cccnc12 [YT47R]
- engagement of C1113 of recombinantly expressed DCAF1 [1]: ~20%
- polyubiquitination of immunoprecipitated HA-FKBP12 (HA-FKBP12; DCAF1-WT-expressing cells, 5 μM, 2 h, MG132): robust polyubiquitination
- FKBP12 ubiquitination (HA-FKBP12; HEK293T cells that did not express exogenous DCAF1, versus YT47S): increased FKBP12 ubiquitination
- ternary complex of FKBP12 and DCAF1 ([2]; FLAG-DCAF1-WT, in the presence of MG132 (10 μM)): clear evidence of a ternary complex
- ternary complex of endogenous DCAF1 with HA-FKBP12 ([2]; HEK293T expressing HA-FKBP12 only, MG132, compared to YT47S or DMSO): more robust ternary complex
- ternary complex of FKBP12 and DCAF1 ([2]; cells expressing the DCAF1-C1113A mutant, MG132): not observed
